Like-named read-outs stand apart in the source and are kept apart here.

Drawing on patent publication US20230295197A1, “STAT5 and STAT6 Degraders and Uses Thereof” (REGENTS OF THE UNIVERSITY OF MICHICAN, priority 2022, published 2023), this text covers DC50 for 8 molecules.

For this experiment, the target named is T1, STAT6 (Homo sapiens, UniProt P42226).
T1 construct: endogenous in cells; host or cells: MOLM-16, KU-812, SKNO1, MB231, L1236
T1 sequence (P42226 1-847): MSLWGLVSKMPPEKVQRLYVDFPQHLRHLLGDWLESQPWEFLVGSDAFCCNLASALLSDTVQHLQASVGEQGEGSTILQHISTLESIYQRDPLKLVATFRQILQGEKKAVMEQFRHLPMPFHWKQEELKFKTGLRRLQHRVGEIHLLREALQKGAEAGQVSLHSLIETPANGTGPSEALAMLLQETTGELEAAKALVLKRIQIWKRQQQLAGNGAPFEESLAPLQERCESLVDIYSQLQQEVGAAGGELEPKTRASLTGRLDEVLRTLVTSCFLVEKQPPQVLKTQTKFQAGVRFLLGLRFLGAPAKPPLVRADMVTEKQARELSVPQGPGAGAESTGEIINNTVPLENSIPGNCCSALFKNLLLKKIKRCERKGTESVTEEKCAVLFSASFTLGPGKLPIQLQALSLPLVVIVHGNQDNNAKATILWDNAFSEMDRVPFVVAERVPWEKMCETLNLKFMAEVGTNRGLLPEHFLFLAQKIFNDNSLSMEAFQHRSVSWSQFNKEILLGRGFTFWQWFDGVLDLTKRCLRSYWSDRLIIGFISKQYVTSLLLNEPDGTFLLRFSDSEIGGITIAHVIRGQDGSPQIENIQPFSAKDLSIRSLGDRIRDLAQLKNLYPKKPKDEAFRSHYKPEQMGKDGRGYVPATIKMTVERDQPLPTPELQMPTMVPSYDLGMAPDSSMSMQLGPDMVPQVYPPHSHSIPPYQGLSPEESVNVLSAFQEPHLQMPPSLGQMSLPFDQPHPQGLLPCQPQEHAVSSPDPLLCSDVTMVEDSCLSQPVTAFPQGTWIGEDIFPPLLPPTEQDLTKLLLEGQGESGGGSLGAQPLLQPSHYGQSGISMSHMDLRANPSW
In words: Immunoblotting (Western blot) analysis of STAT6 degradation efficiency of degraders in treated cells. Format: cell-based. The gist of the method: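 Degradation read by quantitative near-infrared Western blot: equal protein loads (20-40 μg) from compound-treated versus untreated cells, probed overnight at 4° C. for STAT5 or STAT6 with GAPDH reference. Compound concentrations and exposure times as indicated; cells grown in medium with 10% FBS at 37° C.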
A general note: A western blot detects proteins with antibodies after separation by electrophoresis.

The mark [1] stands for this setting: L1236 cells, read-out: DC50 S6 L1236.
Where [2] appears, read: MOLM-16 cells, class symbols, read-out: DC50 S6 MOLM-16.

Turning to `Cc1ncsc1-c1ccc([C@H](C)NC(=O)[C@@H]2C[C@@H](O)CN2C(=O)[C@@H](NC(=O)CCCCCNC(=O)CC(=O)N2CCN(C(=O)[C@@H](NC(=O)c3cc4cc(C(F)(F)P(=O)(O)O)ccc4s3)C(C)(C)C)[C@H](C(=O)N3CCO[C@H](c4ccccc4)C3)C2)C(C)(C)C)cc1` [Compound 447, (difluoro(2-(((S)-1-((S)-4-(3-((6-(((S)-1-((2S,4R)-4-hydroxy-2-(((S)-1-(4-(4-methylthiazol-5-yl)phenyl)ethyl)carbamoyl)pyrrolidin-1-yl)-3,3-dimethyl-1-oxobutan-2-yl)amino)-6-oxohexyl)amino)-3-oxopropanoyl)-2-((R)-2-phenylmorpholine-4-carbonyl)piperazin-1-yl)-3,3-dimethyl-1-oxobutan-2-yl)carbamoyl)benzo[b]thiophen-5-yl)methyl)phosphonic acid], the 50% degradation concentration (DC50) (commonly the concentration at which degradation of the target reaches its halfway point) was greater than 10 µM under setting [1] and greater than 10 µM under setting [2].
Take `Cc1ncsc1-c1ccc([C@H](C)NC(=O)[C@@H]2C[C@@H](O)CN2C(=O)[C@@H](NC(=O)CCCCCCNC(=O)CC(=O)N2CCN(C(=O)[C@@H](NC(=O)c3cc4cc(C(F)(F)P(=O)(O)O)ccc4s3)C(C)(C)C)[C@H](C(=O)N3CCO[C@H](c4ccccc4)C3)C2)C(C)(C)C)cc1` [Compound 448, (difluoro(2-(((S)-1-((S)-4-(3-((7-(((S)-1-((2S,4R)-4-hydroxy-2-(((S)-1-(4-(4-methylthiazol-5-yl)phenyl)ethyl)carbamoyl)pyrrolidin-1-yl)-3,3-dimethyl-1-oxobutan-2-yl)amino)-7-oxoheptyl)amino)-3-oxopropanoyl)-2-((R)-2-phenylmorpholine-4-carbonyl)piperazin-1-yl)-3,3-dimethyl-1-oxobutan-2-yl)carbamoyl)benzo[b]thiophen-5-yl)methyl)phosphonic acid]: the DC50 is greater than 10 µM under setting [1] and greater than 10 µM under setting [2].
Regarding `Cc1ncsc1-c1ccc([C@H](C)NC(=O)[C@@H]2C[C@@H](O)CN2C(=O)[C@@H](NC(=O)CCCCCCCNC(=O)CC(=O)N2CCN(C(=O)[C@@H](NC(=O)c3cc4cc(C(F)(F)P(=O)(O)O)ccc4s3)C(C)(C)C)[C@H](C(=O)N3CCO[C@H](c4ccccc4)C3)C2)C(C)(C)C)cc1` [Compound 449, (difluoro(2-(((S)-1-((S)-4-(3-((8-(((S)-1-((2S,4R)-4-hydroxy-2-(((S)-1-(4-(4-methylthiazol-5-yl)phenyl)ethyl)carbamoyl)pyrrolidin-1-yl)-3,3-dimethyl-1-oxobutan-2-yl)amino)-8-oxooctyl)amino)-3-oxopropanoyl)-2-((R)-2-phenylmorpholine-4-carbonyl)piperazin-1-yl)-3,3-dimethyl-1-oxobutan-2-yl)carbamoyl)benzo[b]thiophen-5-yl)methyl)phosphonic acid], the DC50 was greater than 10 µM under setting [1] and greater than 10 µM under setting [2].
Take `Cc1ncsc1-c1ccc([C@H](C)NC(=O)[C@@H]2C[C@@H](O)CN2C(=O)[C@@H](NC(=O)CCCCCCCCNC(=O)CC(=O)N2CCN(C(=O)[C@@H](NC(=O)c3cc4cc(C(F)(F)P(=O)(O)O)ccc4s3)C(C)(C)C)[C@H](C(=O)N3CCO[C@H](c4ccccc4)C3)C2)C(C)(C)C)cc1` [Compound 450, (difluoro(2-(((S)-1-((S)-4-(3-((9-(((S)-1-((2S,4R)-4-hydroxy-2-(((S)-1-(4-(4-methylthiazol-5-yl)phenyl)ethyl)carbamoyl)pyrrolidin-1-yl)-3,3-dimethyl-1-oxobutan-2-yl)amino)-9-oxononyl)amino)-3-oxopropanoyl)-2-((R)-2-phenylmorpholine-4-carbonyl)piperazin-1-yl)-3,3-dimethyl-1-oxobutan-2-yl)carbamoyl)benzo[b]thiophen-5-yl)methyl)phosphonic acid]: the DC50 is, setting by setting: under setting [1], greater than 10 µM; under setting [2], greater than 10 µM.
With `Cc1ncsc1-c1ccc([C@H](C)NC(=O)[C@@H]2C[C@@H](O)CN2C(=O)[C@@H](NC(=O)CCCCCCCCCNC(=O)CC(=O)N2CCN(C(=O)[C@@H](NC(=O)c3cc4cc(C(F)(F)P(=O)(O)O)ccc4s3)C(C)(C)C)[C@H](C(=O)N3CCO[C@H](c4ccccc4)C3)C2)C(C)(C)C)cc1` [Compound 451, (difluoro(2-(((S)-1-((S)-4-(3-((10-(((S)-1-((2S,4R)-4-hydroxy-2-(((S)-1-(4-(4-methylthiazol-5-yl)phenyl)ethyl)carbamoyl)pyrrolidin-1-yl)-3,3-dimethyl-1-oxobutan-2-yl)amino)-10-oxodecyl)amino)-3-oxopropanoyl)-2-((R)-2-phenylmorpholine-4-carbonyl)piperazin-1-yl)-3,3-dimethyl-1-oxobutan-2-yl)carbamoyl)benzo[b]thiophen-5-yl)methyl)phosphonic acid], the DC50 by setting is: under setting [1], greater than 10 µM; under setting [2], greater than 10 µM.
In the case of `Cc1ncsc1-c1ccc([C@H](C)NC(=O)[C@@H]2C[C@@H](O)CN2C(=O)[C@@H](NC(=O)CNC(=O)CC(=O)N2CCN(C(=O)[C@@H](NC(=O)c3cc4cc(C(F)(F)P(=O)(O)O)ccc4s3)C(C)(C)C)[C@H](C(=O)N3CCC[C@H](c4ccccc4)C3)C2)C(C)(C)C)cc1` [Compound 452, (difluoro(2-(((S)-1-((S)-4-(3-((2-(((S)-1-((2S,4R)-4-hydroxy-2-(((S)-1-(4-(4-methylthiazol-5-yl)phenyl)ethyl)carbamoyl)pyrrolidin-1-yl)-3,3-dimethyl-1-oxobutan-2-yl)amino)-2-oxoethyl)amino)-3-oxopropanoyl)-2-((R)-3-phenylpiperidine-1-carbonyl)piperazin-1-yl)-3,3-dimethyl-1-oxobutan-2-yl)carbamoyl)benzo[b]thiophen-5-yl)methyl)phosphonic acid], the DC50 under setting [1] is greater than 10 µM and the DC50 under setting [2] was greater than 10 µM.
Consider `Cc1ncsc1-c1ccc([C@H](C)NC(=O)[C@@H]2C[C@@H](O)CN2C(=O)[C@@H](NC(=O)CCNC(=O)CC(=O)N2CCN(C(=O)[C@@H](NC(=O)c3cc4cc(C(F)(F)P(=O)(O)O)ccc4s3)C(C)(C)C)[C@H](C(=O)N3CCC[C@H](c4ccccc4)C3)C2)C(C)(C)C)cc1` [Compound 453, (difluoro(2-(((S)-1-((S)-4-(3-((3-(((S)-1-((2S,4R)-4-hydroxy-2-(((S)-1-(4-(4-methylthiazol-5-yl)phenyl)ethyl)carbamoyl)pyrrolidin-1-yl)-3,3-dimethyl-1-oxobutan-2-yl)amino)-3-oxopropyl)amino)-3-oxopropanoyl)-2-((R)-3-phenylpiperidine-1-carbonyl)piperazin-1-yl)-3,3-dimethyl-1-oxobutan-2-yl)carbamoyl)benzo[b]thiophen-5-yl)methyl)phosphonic acid], for which the DC50 reads like this: under setting [1], greater than 10 µM; under setting [2], greater than 10 µM.
For `Cc1ncsc1-c1ccc([C@H](C)NC(=O)[C@@H]2C[C@@H](O)CN2C(=O)[C@@H](NC(=O)CCCNC(=O)CC(=O)N2CCN(C(=O)[C@@H](NC(=O)c3cc4cc(C(F)(F)P(=O)(O)O)ccc4s3)C(C)(C)C)[C@H](C(=O)N3CCC[C@H](c4ccccc4)C3)C2)C(C)(C)C)cc1` [Compound 454, (difluoro(2-(((S)-1-((S)-4-(3-((4-(((S)-1-((2S,4R)-4-hydroxy-2-(((S)-1-(4-(4-methylthiazol-5-yl)phenyl)ethyl)carbamoyl)pyrrolidin-1-yl)-3,3-dimethyl-1-oxobutan-2-yl)amino)-4-oxobutyl)amino)-3-oxopropanoyl)-2-((R)-3-phenylpiperidine-1-carbonyl)piperazin-1-yl)-3,3-dimethyl-1-oxobutan-2-yl)carbamoyl)benzo[b]thiophen-5-yl)methyl)phosphonic acid], the DC50 was greater than 10 µM under setting [1] and greater than 10 µM under setting [2].
